Assay results: PMC6158578, “Optimization and Lead Selection of Benzothiazole Amide Analogs Toward a Novel Antimycobacterial Agent” (Frontiers in Microbiology, 2018)
In brackets after ≈: the same amount, converted by molar mass. Like-named read-outs stand apart in the source and are kept apart here.

Legend:
[1] = tested on: M. fortuitum (n = 11) clinical isolates; assay: MIC against rapid-growing NTM clinical isolates; type: cell-based; conditions: for MIC range: M. fortuitum (n = 11); for MIC90: Mycolicibacterium fortuitum
[2] = tested on: S. aureus ATCC 29213; assay: MIC, spectrum of activity; type: cell-based; conditions: Staphylococcus aureus, ATCC29213
[3] = tested on: P. aeruginosa ATCC 35151; assay: MIC, spectrum of activity; type: cell-based; conditions: Pseudomonas aeruginosa, ATCC35151
[4] = tested on: M. abscessus massiliense 119; assay: MIC, broth microdilution with resazurin (MHB, 3 days); type: cell-based; conditions: Mycobacteroides abscessus
[5] = tested on: M. fortuitum 41; assay: as above; type: cell-based; conditions: Mycolicibacterium fortuitum, 41
[6] = tested on: Other NTM (n = 12); assay: MIC against rapid-growing NTM clinical isolates; type: cell-based; conditions: for MIC range: Other NTM (n = 12)
[7] = 50% complement-inactivated human serum
[8] = tested on: M. abscessus ATCC 19977; assay: MIC, broth microdilution with resazurin (MHB, 3 days); type: cell-based; conditions: Mycobacteroides abscessus, ATCC19977
[9] = tested on: E. faecalis ATCC 29212; assay: MIC, spectrum of activity; type: cell-based; conditions: Enterococcus faecalis, ATCC29212
[10] = tested on: S. pneumoniae ATCC 49619; assay: MIC, spectrum of activity; type: cell-based; conditions: Streptococcus pneumoniae, ATCC49619
[11] = physchem; type: physicochemical; conditions: pH 7.4, aqueous buffer, thermodynamic from solid
Method: (§1) ADMET assays were performed through NIAID Preclinical Services and Eurofins. Potential for cytotoxicity was monitored in HepG2 cells after 72 h growth in the presence of test compounds, either prepared as 10-point 3-fold serial dilutions or at a fixed 10 μM concentration. Cell viability was measured using the CellTiter-Glo® Luminescent Cell Viability Assay (Promega) or via fluorescent image analysis. Cytotoxicity was expressed as IC50 or as percent reduction of viable cells relative to a reference compound. Metabolic stability of compounds was evaluated via incubation with human liver microsomes at 37°C and quantitative analysis of parent compound by LC-MS/MS in samples removed at 0, 5, 15, 30, and 45 min (Obach, [1999]). For cytochrome P450 (CYP) inhibition assays, compounds were prepared as a 7-point dilution series and incubated with human liver microsomes in buffer containing 2 mM NADPH and probe substrate. […] Thermodynamic solubility of compounds in aqueous media was determined by incubation in 50 mM potassium phosphate buffer (pH 7.4) for 24 h, followed by HPLC-UV detection of compound in the filtrate (Analiza, Cleveland, OH, United States).

[12] = tested on: M. abscessus (n = 20) clinical isolates; assay: MIC against rapid-growing NTM clinical isolates; type: cell-based; conditions: for MIC range: M. abscessus (n = 20); for MIC90: Mycobacteroides abscessus
[13] = tested on: M. chelonae 93; assay: MIC, broth microdilution with resazurin (MHB, 3 days); type: cell-based; conditions: Mycobacteroides chelonae, 93
[14] = tested on: M. abscessus; parameters: method as in Graham et al., 2018; conditions: SAR of CRS400153 analogs; ref Graham et al., 2018; cited from earlier work
[15] = tested on: S. pyogenes ATCC 19615; assay: MIC, spectrum of activity; type: cell-based; conditions: Streptococcus pyogenes, ATCC19615
[16] = tested on: M. tuberculosis H37Rv mc^2 6206; assay: microbe, parasite or virus in culture; type: cell-based; conditions: Mycobacterium tuberculosis
[17] = tested on: M. peregrinum ATCC 700686; assay: MIC, broth microdilution with resazurin (MHB, 3 days); type: cell-based; conditions: Mycolicibacterium peregrinum, ATCC700686
[18] = tested on: Mtb intact cells and inverted membrane vesicles; type: cell-based, M. tuberculosis
[19] = tested on: mycolic acid transfer in Mabs ATCC19977; assay: Metabolic labeling with [14C]acetate; type: cell-based, M. abscessus; conditions: 2x and 10x MIC
[20] = tested on: M. chelonae (n = 11) clinical isolates; assay: MIC against rapid-growing NTM clinical isolates; type: cell-based; conditions: for MIC range: M. chelonae (n = 11); for MIC90: Mycobacteroides chelonae
[21] = tested on: M. intracellulare 1956; assay: MIC, Middlebrook medium (7H9 + OADC, 7 days); type: cell-based; conditions: Mycobacterium intracellulare, 1956, 168 h
[22] = tested on: E. coli tolC CGSC 5633 (efflux mutant strain); assay: microbe, parasite or virus in culture; type: cell-based; conditions: Escherichia coli
[23] = tested on: M. avium 101; assay: MIC, Middlebrook medium (7H9 + OADC, 7 days); type: cell-based; conditions: Mycobacterium avium, 101, 168 h
[24] = tested on: E. coli ATCC 25922 + PMBN (permeabilized); assay: MIC, spectrum of activity; type: cell-based; conditions: Escherichia coli, ATCC25922
[25] = tested on: M. abscessus 79; assay: MIC in MHB versus 7H9+OADC; type: cell-based
[26] = tested on: CYP3A; assay: CYP inhibition in human liver microsomes; type: in vitro ADME
Method: as §1

[27] = target: T1, CYP2B6 (Homo sapiens, UniProt P20813); assay: CYP inhibition in human liver microsomes; type: in vitro ADME
T1 construct: incubated with human liver microsomes in buffer containing 2 mM NADPH and probe substrate; from tissue; host or cells: human liver microsomes
T1 sequence (P20813 1-491): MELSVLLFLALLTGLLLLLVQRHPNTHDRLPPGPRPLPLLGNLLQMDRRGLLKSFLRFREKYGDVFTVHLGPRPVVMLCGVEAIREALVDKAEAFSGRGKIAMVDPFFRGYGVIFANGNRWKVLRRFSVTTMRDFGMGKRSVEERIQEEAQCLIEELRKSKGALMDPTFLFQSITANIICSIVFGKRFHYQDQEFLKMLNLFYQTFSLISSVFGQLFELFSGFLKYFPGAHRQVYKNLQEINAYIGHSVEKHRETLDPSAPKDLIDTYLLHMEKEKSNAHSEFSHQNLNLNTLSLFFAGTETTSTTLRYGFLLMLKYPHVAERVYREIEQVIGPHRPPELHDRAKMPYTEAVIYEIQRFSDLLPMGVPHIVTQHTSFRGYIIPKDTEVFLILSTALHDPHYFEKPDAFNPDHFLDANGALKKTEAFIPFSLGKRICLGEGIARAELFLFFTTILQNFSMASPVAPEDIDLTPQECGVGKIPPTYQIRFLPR
Method: as §1

[28] = tested on: Mabs 21; assay: Time-kill assay; type: cell-based, M. abscessus; conditions: 10x MIC
[29] = type: cell-based
[30] = HepG2 cytotoxicity, 72 h; type: cell-based; conditions: human, HepG2 cells, HepG2, 72 h, read-out: HepG2 cytotox., IC50
Method: as §1

[31] = tested on: Anaerobes (n > 20 strains); assay: organism not typed; type: cell-based
[32] = tested on: M. abscessus 21; assay: MIC in MHB versus 7H9+OADC; type: cell-based
[33] = tested on: M. abscessus 1; assay: MIC in MHB versus 7H9+OADC; type: cell-based
[34] = tested on: M. chimaera 1502055; assay: MIC, Middlebrook medium (7H9 + OADC, 7 days); type: cell-based; conditions: 1502055, 168 h
[35] = tested on: C. albicans ATCC 10231; assay: MIC, spectrum of activity; type: cell-based; conditions: Candida albicans, ATCC10231
[36] = tested on: rapid-growing NTM; assay: MIC against rapid-growing NTM; type: cell-based; conditions: read-out: MIC values against rapid-growing NTM
[37] = tested on: M. avium complex (MAC); assay: MIC against MAC; type: cell-based; conditions: Mycobacterium avium, read-out: MIC against MAC

In the case of `CC1CC(C(=O)Nc2nc3c(F)cc(F)cc3s2)CC(C)(C)C1` (stereo not shown) [CRS400153], the MIC range [1] is reported as 0.5–0.5 μg/mL, the MIC90 [1] is reported as 0.5 µg/mL (≈ 1.48 µM) and the MIC [2] is reported as over 64 µg/mL. It also gave an MIC [3] of over 64 µg/mL, an MIC [4] of 0.5 µg/mL (≈ 1.48 µM) and an MIC [5] of 0.25 µg/mL (≈ 0.739 µM). For the same molecule, the MIC90 [6] was 1 µg/mL (≈ 2.95 µM), the MIC range [6] was 0.25 to 1 µg/mL and the “Protein (serum) binding” value [7] was over 95%. For the same molecule, the MIC [8] was 0.5 µg/mL (≈ 1.48 µM), the MIC [9] was over 64 µg/mL and the MIC [10] was 8 µg/mL (≈ 23.6 µM). The solubility at 24 h [11] was 3 µM (≈ 1.02 µg/mL), the MIC range [12] was 0.5 to 2 µg/mL and the MIC90 [12] was 1 µg/mL (≈ 2.95 µM). For the same molecule, the MIC [13] was 0.25 µg/mL (≈ 0.739 µM), the “MIC against M. abscessus” value [14] was 0.5 µg/mL (≈ 1.48 µM) and the MIC [15] was over 64 µg/mL. For the same molecule, the MIC ([16]; 168 h) was 1 µg/mL (≈ 2.95 µM), the MIC [17] was 0.12 µg/mL (≈ 0.355 µM) and the “effect on membrane potential and electrochemical pH gradient” value [18] was “no effect”. For the same molecule, the “effect on mycolic acid transfer to arabinogalactan and trehalose dimycolates” value [19] was “concentration-dependent inhibition of mycolic acid transfer”, the MIC range [20] was 0.5 to 1 µg/mL and the MIC90 [20] was 1 µg/mL (≈ 2.95 µM). It also gave an MIC [21] of 8 µg/mL, an MIC [22] of over 64 µg/mL and an MIC [23] of 16 µg/mL. For the same molecule, the MIC [24] was over 64 µg/mL.

In the case of `CC12CCCC(C(=O)Nc3nc4cc(Cl)cc(Cl)c4s3)(CCC1)C2` [CRS400393], the MIC range [1] is reported as at most 0.03 to 0.5 µg/mL, the MIC90 [1] is reported as 0.25 µg/mL (≈ 0.652 µM) and the MIC ([25]; M. abscessus 79, 7H9 + OADC (5 mg/mL albumin)) is reported as 0.5 µg/mL. For the same molecule, the MIC ([25]; M. abscessus 79, MHB) was 0.03 µg/mL (≈ 0.0783 µM), the MIC [2] was over 64 µg/mL and the MIC [3] was 64 µg/mL (≈ 167 µM). For the same molecule, the MIC [4] was 0.03 µg/mL (≈ 0.0783 µM), the MIC [5] was 0.06 µg/mL (≈ 0.157 µM) and the inhibition at 10 µM [26] was 26%. The inhibition at 10 µM [27] was 39%, the MIC90 [6] was 0.5 µg/mL (≈ 1.3 µM) and the MIC range [6] was 0.12 to 0.5 µg/mL. For the same molecule, the “time-kill kinetics, result in words” value [28] was “bactericidal activity”, the “drop in Mabs in time-kill assay” value ([28]; after 5 days) was 2 Log10 CFU and the “effect against Mabs in time-kill assay” value ([28]; for 3 days) was “bacteriostatic”. For the same molecule, the “interaction when combined with other antimycobacterial agents” value [29] was “additivity and no antagonism”, the “Protein (serum) binding” value [7] was over 95% and the MIC [8] was 0.03 µg/mL (≈ 0.0783 µM). It also gave an MIC [9] of over 64 µg/mL, an IC50 at 72 h [30] of over 10 µM and an IC50 at 72 h ([30]; value in brackets) of over 4 µg/mL. It also gave an MIC [10] of 32 µg/mL (≈ 83.5 µM), a solubility at 24 h [11] of under 3 µM and an MIC [31] of over 32 µg/mL. For the same molecule, the MIC ([32]; M. abscessus 21, 7H9 + OADC (5 mg/mL albumin)) was 1 µg/mL, the MIC ([32]; M. abscessus 21, MHB) was 0.03 µg/mL (≈ 0.0783 µM) and the MIC range [12] was at most 0.03 to 0.25 µg/mL. The MIC90 [12] was 0.25 µg/mL (≈ 0.652 µM), the MIC [13] was 0.03 µg/mL (≈ 0.0783 µM) and the MIC [15] was over 64 µg/mL. It also gave an MIC ([16]; 168 h) of at most 0.12 µg/mL, an MIC ([16]; read-out: MIC against Mtb) of at most 0.12 µg/mL and an MIC [17] of 0.03 µg/mL (≈ 0.0783 µM). For the same molecule, the MIC ([33]; M. abscessus 1, 7H9 + OADC (5 mg/mL albumin)) was 1 µg/mL, the MIC ([33]; M. abscessus 1, MHB) was 0.06 µg/mL (≈ 0.157 µM) and the MIC [34] was 1 µg/mL. For the same molecule, the MIC range [20] was 0.12–0.12 μg/mL, the MIC90 [20] was 0.12 µg/mL (≈ 0.313 µM) and the MIC [35] was over 64 µg/mL. For the same molecule, the MIC [36] was 0.03 to 0.5 µg/mL (≈ 0.0783 to 1.3 µM), the MIC [21] was 2 µg/mL and the MIC [22] was 64 µg/mL (≈ 167 µM). For the same molecule, the MIC [23] was 2 µg/mL, the MIC [37] was 1 to 2 µg/mL (≈ 2.61 to 5.22 µM) and the MIC [24] was over 64 µg/mL.
